How the values were obtained:
IL-6 (Interleukin-6) = experiment: IL-6 production by ELISA in UVB-irradiated HaCaT keratinocytes; format: cell-based; settings: for reduced IL-6 levels: 10 µM (highest concentration tested), 4 h pretreatment, UVB 50 mJ/cm^2, 24 h incubation
Procedure: For the evaluation of anti-inflammatory activity (Figure 2), HaCaT keratinocytes were pretreated for 4 h with the compounds morin (A), morin oxime obtained in Example 1 (B) and morin semicarbazone obtained in Example 1 (C) (2.5, 5 and 10 µM). They were then irradiated with UVB radiation at 50 mJ/cm^2, incubated for 24 h and IL-6 (Interleukin-6) production was assessed by ELISA. Results were expressed as pg/mL and bars represent ± SEM (n=5). […] Thus, it is worth noting that at the highest concentration tested (10 µM), morin oxime reduced IL-6 levels by 45% (Figure 2B) and morin semicarbazone by 28% (Figure 2C), compared to morin, with which a decrease of only 16% was observed (Figure 2A).
Finally, the combination of morin or the morin semicarbazone derivative from Example 1 with fucoxanthin induced a decrease in IL-6 production at all concentrations tested in a 1:1 proportion. It is worth mentioning that this reduction was more notable with the fucoxanthin+morin semicarbazone mixture at the 5-5 µM and 10-10 µM combinations (42% reduction) (Figure 6C) than with fucoxanthin+morin (38% reduction) (Figure 6B). […] The results were expressed as a percentage with respect to the irradiated control cells and the bars represented mean ± SEM (n = 4).

ROS = experiment: Intracellular ROS (dichlorodihydrofluorescein-diacetate technique) in UVB-irradiated HaCaT cells; format: cell-based
Procedure: For the evaluation of the antioxidant activity of morin semicarbazone obtained in Example 1, HaCaT cells were pre-treated with morin and semicarbazone at the selected concentrations for 4 h and then irradiated with UVB radiation at 50 mJ/cm^2. After 45 min, ROS levels were measured using the dichlorodihydrofluorescein-diacetate technique. […] The results were expressed as a percentage with respect to the irradiated cell control and the bars represented mean ± SEM (n=4).
This decrease was slightly greater with the fucoxanthin+morin semicarbazone mixture at the 1.25-1.25 µM and 2.5-2.5 µM combinations (41% reduction) (Figure 5C) than with fucoxanthin+morin (33% and 37% reduction, respectively) (Figure 5B). […] The results were expressed as a percentage with respect to the irradiated control cells and the bars represented mean ± SEM (n = 4).

[1] = Solubility of the isolated crystals; format: physicochemical; settings: solvents in words
Procedure: For the preparation of morin oxime, 0.03 g of morin dissolved in 5 mL of MeOH were used, 0.0206 g of hydroxylamine hydrochloride and 0.0206 g of sodium acetate were added. The mixture was left under constant stirring and reflux for 2.5 hours. After this time, the crude product of the reaction was tempered and poured onto wet ice generating a precipitate, which was washed with dichloromethane and methanol obtaining a yellow solid in 60% yield. […] 6.45 dd (J = 8.5; 2.1 Hz). 6.39 d (J = 2.1 Hz). 6.34 d (J = 1.9 Hz). 6.16 d (J = 1.9 Hz). NMR of ^13C δ 102.9. 122.0. 122.0. 144.3. 149.1. 149.4. 152.8. 153.1. 154.7. 155.9. 84.5. 89.5. 95.5. 95.5. 99.5. UV (EtOH) λmax (log ε) 210 (4.6). 265 (4.2). 390 (4.4). The preparation of the compound can be carried out using the above-mentioned method with 0.1 g of morin, 0.07 g of hydroxylamine hydrochloride and 0.07 g of sodium acetate.
For the preparation of morin semicarbazone, 0.03 g of morin dissolved in 5 mL of MeOH was used, 0.0332 g of semicarbazide hydrochloride and 0.0332 g of sodium acetate were added. The mixture was left under constant stirring and reflux for 3 hours. After this time, the crude product of the reaction was tempered and poured onto wet ice generating a precipitate, which was recovered by filtration obtaining a coffee solid in 76% yield. […] 10.71 sa. 9.77 sa. 7.22 d (J= 8.4 Hz). 6.37 d (J= 2.4 Hz). 6.33 dd (J= 8.4; 2.4 Hz). 6.28 d (J= 1.9 Hz). […]

[2] = ABTS antioxidant capacity, Trolox curve as reference control; format: biochemical; settings: ABTS technique
Procedure: First, the antioxidant capacity of the compounds was determined directly using the ABTS technique (2,2-azino-bis-3-benzo-thiazoline-6-sulfonic acid) at different concentrations of the compounds (morin and the compounds of Example 1), using as a reference control a curve of increasing concentrations of Trolox. […] Table 1. Antioxidant capacity of compounds

[3] = UV-vis absorption spectra (molar extinction coefficient); format: physicochemical; settings: UV-vis 200-500 nm; improvement relative to morin
Text: As experimental evidence of the improvement in the photoprotective capacity of compounds synthesized in Example 1, a comparison was made of the absorption capacity in the UV-vis range between morin and nitrogen derivatives (Schiff bases).
The tangible improvement with chemical modification for the compounds synthesized in Example 1 is evident by comparing the molar extinction coefficient (ε) values. […] In a further analysis, it can be seen that the εmax of morin oxime is 60% better than that of morin, and εmax of morin semicarbazone is 40% better than that of morin. […] Therefore, an improvement can be achieved in the optimization of active ingredients used in the preparation of compositions, the purpose of which is directed towards photoprotection and a photoabsorbent flavonoid is contemplated in said formulation.

[4] = fucoxanthin alone, highest concentration tested

Row | Molecule | IL-6 production reduction (IL-6 (Interleukin-6); [4]) | ROS reduction (ROS; [4]) | solubility [1] | reduced IL-6 levels (IL-6 (Interleukin-6)) | EC50 [2] | Trolox equivalency (EC50 sample/EC 50 Trolox) [2] | εmax better than that of morin [3] | ROS levels (result in words) (ROS; all concentrations tested, 4 h pretreatment, UVB 50 mJ/cm^2, 45 min) | reduced ROS production (ROS; 10 µM, 4 h pretreatment, UVB 50 mJ/cm^2, 45 min, vs irradiated cell control)
1 | fucoxanthin [reference compound] | 30% | 34% | – | – | – | – | – | – | –
2 | ON=c1c(O)c(-c2ccc(O)cc2O)oc2cc(O)cc(O)c12 [Morin oxime, 2-(2,4-dihydroxyphenyl)-3,5,7-trihydroxy-4H-chromen-4-one oxime] | – | – | soluble in AcOEt, acetone, MeOH, and partially soluble in water | 45% | 13.7 ± 0.768 µM | 0.658 | 60% | – | –
3 | O=c1c(O)c(-c2ccc(O)cc2O)oc2cc(O)cc(O)c12 [Morin, 2-(2,4-dihydroxyphenyl)-3,5,7-trihydroxy-4H-chromen-4-one] | – | – | – | 16% | 10.8 ± 2.21 µM | 0.517 | – | failed to reduce ROS levels at any of the concentrations tested | –
4 | Cc1c(C)c2c(c(C)c1O)CCC(C)(C(=O)O)O2 (stereo not shown) [Trolox, reference compound] | – | – | – | – | 20.8 ± 0.811 µM | 1 | – | – | –
5 | NC(=O)NN=c1c(O)c(-c2ccc(O)cc2O)oc2cc(O)cc(O)c12 [Morin semicarbazone, 2-(2-(2,4-dihydroxyphenyl)-3,5,7-trihydroxy-4H-chromen-4-ylidene)hydrazine-1-carboxamide] | – | – | solubility in AcOEt, acetone, MeOH | 28% | 12.3 ± 0.922 µM | 0.590 | 40% | – | up to 20%
